These results are taken from publication PMC8034185, “The rumen eukaryotome is a source of novel antimicrobial peptides with therapeutic potential” (BMC Microbiology, 2021).

The test system of one data set is human red blood cells. Kind of data set: Haemolytic activity. Format: cell-based. The settings on record: human RBC, CTAB control.
The next data set deals with sheep erythrocytes. Kind of data set: Haemolytic activity. In kind it is cell-based. The settings on record: for haemolysis of sheep erythrocytes: 1 h; for Haemolytic activity (Minus PBS/average positive*100): sheep erythrocytes.
The subject of the next data set is S. aureus strains. Format: cell-based, Staphylococcus aureus.
Data set [1] has as its system drug resistant A. baumannii isolates. Format: cell-based, Acinetobacter baumannii.
Description: MICs against a range of clinically important Gram-positive and Gram-negative bacteria strains including methicillin-sensitive Staphylococcus aureus (MSSA) RN4220 epidemic methicillin-resistant S. aureus-15 (EMRSA-15), methicillin-resistant S. aureus USA300 (MRSA USA300), Bacillus cereus, Enterococcus faecalis JH2–2, Escherichia coli K12, Salmonella enterica serovar Typhimurium SL1344, P. aeruginosa PAO1, and hospital isolates of Acinetobacter baummannii were determined in quadruplicate by a modified microdilution broth method [64] with a final bacterial inoculum concentration of 5 × 10^5 CFU/mL utilised as the test organisms. Cation-adjusted Mueller Hinton (MH) broth was innoclated overnight with a single colony of the tested microorganisms, subsequently grown for 16–24 h with shaking at 225 rpm, and further diluted in the same broth to a final concentration of 5 × 10^5 CFU/mL. The bacterial suspension was added to sterile U-bottomed 96-well plates, and the peptides and control antibiotics to be tested were dissolved in sterile distilled water and serially diluted in the wells. The MICs were recorded as the lowest peptide concentration that inhibited growth after incubation for 18 h [65]. […]
The subject of a further data set is S. aureus MSSA (RN4220). Description: microbe, parasite or virus in culture. Format: cell-based, Staphylococcus aureus. As to conditions: modified broth microdilution, cation-adjusted Mueller Hinton broth, inoculum 5 × 10^5 CFU/mL, 18 h, quadruplicate; highest concentration tested 512 μg/mL. A general note: In broth dilution the organism is exposed to a series of concentrations in liquid medium.

The subject of the next data set is S. aureus USA300. Kind of data set: microbe, parasite or virus in culture. In kind it is cell-based, Staphylococcus aureus. As to conditions: modified broth microdilution, cation-adjusted Mueller Hinton broth, inoculum 5 × 10^5 CFU/mL, 18 h, quadruplicate; highest concentration tested 512 μg/mL.
The subject of the next data set is S. aureus ATCC 33591. Kind of data set: microbe, parasite or virus in culture. Format: cell-based, Staphylococcus aureus. The settings on record: modified broth microdilution, cation-adjusted Mueller Hinton broth, inoculum 5 × 10^5 CFU/mL, 18 h, quadruplicate; highest concentration tested 512 μg/mL.
For a further data set, the system named is S. aureus EMRSA-15. Description: microbe, parasite or virus in culture. In kind it is cell-based, Staphylococcus aureus. The settings on record: modified broth microdilution, cation-adjusted Mueller Hinton broth, inoculum 5 × 10^5 CFU/mL, 18 h, quadruplicate; highest concentration tested 512 μg/mL.
The next data set relates to Ent. faecalis (JH2–2). Kind of data set: microbe, parasite or virus in culture. Format: cell-based, Enterococcus faecalis. The settings on record: modified broth microdilution, cation-adjusted Mueller Hinton broth, inoculum 5 × 10^5 CFU/mL, 18 h, quadruplicate; highest concentration tested 512 μg/mL.
The test system of a further data set is B. cereus. Kind of data set: microbe, parasite or virus in culture. As to conditions: modified broth microdilution, cation-adjusted Mueller Hinton broth, inoculum 5 × 10^5 CFU/mL, 18 h, quadruplicate; highest concentration tested 512 μg/mL. Format: cell-based, Bacillus cereus.
For another data set, the system named is E. coli K12. Description: microbe, parasite or virus in culture. Format: cell-based, Escherichia coli. As to conditions: modified broth microdilution, cation-adjusted Mueller Hinton broth, inoculum 5 × 10^5 CFU/mL, 18 h, quadruplicate; highest concentration tested 512 μg/mL.
In another data set the test system is Sal. Tyhimurium (SL1344). Description: microbe, parasite or virus in culture. Format: cell-based, Salmonella enterica serovar Typhimurium. The settings on record: modified broth microdilution, cation-adjusted Mueller Hinton broth, inoculum 5 × 10^5 CFU/mL, 18 h, quadruplicate; highest concentration tested 512 μg/mL.
A further data set relates to P. aeruginosa PAO1. Description: microbe, parasite or virus in culture. Format: cell-based, Pseudomonas aeruginosa. As to conditions: modified broth microdilution, cation-adjusted Mueller Hinton broth, inoculum 5 × 10^5 CFU/mL, 18 h, quadruplicate; highest concentration tested 512 μg/mL.
For a further data set, the system named is P. aeruginosa H174. Kind of data set: microbe, parasite or virus in culture. Format: cell-based, Pseudomonas aeruginosa. As to conditions: modified broth microdilution, cation-adjusted Mueller Hinton broth, inoculum 5 × 10^5 CFU/mL, 18 h, quadruplicate; highest concentration tested 512 μg/mL.
For the next data set, the system named is A. baumannii DSMZ 30007. Description: microbe, parasite or virus in culture. In kind it is cell-based, Acinetobacter baumannii. As to conditions: modified broth microdilution, cation-adjusted Mueller Hinton broth, inoculum 5 × 10^5 CFU/mL, 18 h, quadruplicate; highest concentration tested 512 μg/mL.
A further data set relates to A. baumannii S27379 Sen. Kind of data set: microbe, parasite or virus in culture. In kind it is cell-based, Acinetobacter baumannii. The settings on record: sensitive hospital isolate; modified broth microdilution, cation-adjusted Mueller Hinton broth, inoculum 5 × 10^5 CFU/mL, 18 h, quadruplicate; highest concentration tested 512 μg/mL.
Data set [2] relates to A. baumannii S15785 OXA-23/0XA-50. Kind of data set: microbe, parasite or virus in culture. Format: cell-based, Acinetobacter baumannii. The settings on record: modified broth microdilution, cation-adjusted Mueller Hinton broth, inoculum 5 × 10^5 CFU/mL, 18 h, quadruplicate; highest concentration tested 512 μg/mL.
Description: (§1) MICs against a range of clinically important Gram-positive and Gram-negative bacteria strains including methicillin-sensitive Staphylococcus aureus (MSSA) RN4220 epidemic methicillin-resistant S. aureus-15 (EMRSA-15), methicillin-resistant S. aureus USA300 (MRSA USA300), Bacillus cereus, Enterococcus faecalis JH2–2, Escherichia coli K12, Salmonella enterica serovar Typhimurium SL1344, P. aeruginosa PAO1, and hospital isolates of Acinetobacter baummannii were determined in quadruplicate by a modified microdilution broth method [64] with a final bacterial inoculum concentration of 5 × 10^5 CFU/mL utilised as the test organisms. Cation-adjusted Mueller Hinton (MH) broth was innoclated overnight with a single colony of the tested microorganisms, subsequently grown for 16–24 h with shaking at 225 rpm, and further diluted in the same broth to a final concentration of 5 × 10^5 CFU/mL. The bacterial suspension was added to sterile U-bottomed 96-well plates, and the peptides and control antibiotics to be tested were dissolved in sterile distilled water and serially diluted in the wells. The MICs were recorded as the lowest peptide concentration that inhibited growth after incubation for 18 h [65].
In the next data set the test system is A. baumannii IMI/MER-R. Description: microbe, parasite or virus in culture. Format: cell-based, Acinetobacter baumannii. The settings on record: imipenem/meropenem resistant; modified broth microdilution, cation-adjusted Mueller Hinton broth, inoculum 5 × 10^5 CFU/mL, 18 h, quadruplicate; highest concentration tested 512 μg/mL.

Ends that are not written are not given here.

Description for A. baumannii DSMZ 30007: as §1
Description for A. baumannii IMI/MER-R: as §1
Description for A. baumannii S27379 Sen: as §1
Description for B. cereus: as §1
Description for E. coli K12: as §1
Description for Ent. faecalis (JH2–2): as §1
Description for P. aeruginosa H174: as §1
Description for P. aeruginosa PAO1: as §1
Description for S. aureus ATCC 33591: as §1
Description for S. aureus EMRSA-15: as §1
Description for S. aureus MSSA (RN4220): as §1
Description for S. aureus USA300: as §1
Description for Sal. Tyhimurium (SL1344): as §1
Description for human red blood cells: (§2) Fresh human red blood cells (RBC) (Cambridge Bioscience, UK) and defibrinated sheep erythrocytes (Oxoid Ltd. Hampshire, UK) were washed 3 times with PBS, centrifuged for 5 min at 500 rpm between each wash and resuspended to 4% (v/v) in PBS. […] The percentage of haemolysis was calculated according to the equation: (A450 peptide solution − A450 PBS)/ (A450 0.1% Triton X-100 − A450 PBS) × 100. The therapeutic index (T.I.) was calculated as the ratio of the minimum haemolytic concentration ((MHC)- causing 5% haemolysis to human erythrocytes) to the minimum inhibitory concentration (MICGM+) [46]. The MICGM+ was the minimum inhibitory concentration of the peptide against Gram-positive bacterial strains after the geometric mean was calculated.
Description for sheep erythrocytes: as §2

In turn, `CCCCCCCCCCCCCCCC[N+](C)(C)C.[Br-]` [CTAB] showed a Haemolytic with human red blood cells of 100.

Consider GIVAWFWRLAR [Lubelisin], for which the “haemolysis of sheep erythrocytes” value in the data set on sheep erythrocytes (16 μg/mL) is recorded as roughly 20%; with sheep erythrocytes (24 μg/mL), roughly 30%. Besides, the “Haemolytic activity (Minus PBS/average positive*100)” value was found to be 12.8836 in the data set with sheep erythrocytes (1x MIC, mean); 12.4097 in the data set on sheep erythrocytes (1x MIC, replicate 1); 12.5903 with sheep erythrocytes (1x MIC, replicate 2); 11.8682 in the data set on sheep erythrocytes (1x MIC, replicate 3); 14.6661 in the data set with sheep erythrocytes (1x MIC, replicate 4); 18.8177 with sheep erythrocytes (2x MIC, mean). Moreover, the “Haemolytic activity (Minus PBS/average positive*100)” value in the data set on sheep erythrocytes (2x MIC, replicate 1) is reported as 17.1029; in the data set on sheep erythrocytes (2x MIC, replicate 2) it was 22.6986; with sheep erythrocytes (2x MIC, replicate 3), 19.9007; with sheep erythrocytes (2x MIC, replicate 4), 15.5686; in the data set with sheep erythrocytes (3x MIC, mean), 33.7319; in the data set with sheep erythrocytes (3x MIC, replicate 1), 34.2509. The “Haemolytic activity (Minus PBS/average positive*100)” value amounted to 33.1679 with sheep erythrocytes (3x MIC, replicate 2); 33.7094 in the data set with sheep erythrocytes (3x MIC, replicate 3); 33.7996 in the data set on sheep erythrocytes (3x MIC, replicate 4). Besides, the “MIC against S. aureus strains” value with S. aureus strains came to 8 µg/mL. Moreover, in data set [1], the “MIC against drug resistant A. baumannii isolates” value was determined as 128 µg/mL.

On to KGLTVKFKVKN [Lub_376], for which the “Minimum Inhibitory Concentration, S. aureus MSSA” value in the data set on S. aureus MSSA (RN4220) is greater than 512 µg/mL. Besides, the “Minimum Inhibitory Concentration, S. aureus USA300” value in the data set on S. aureus USA300 was greater than 512 µg/mL. Besides, in the data set on S. aureus ATCC 33591, the “Minimum Inhibitory Concentration, S. aureus ATCC 33591” value is greater than 512 µg/mL. Besides, in the data set with S. aureus EMRSA-15, the “Minimum Inhibitory Concentration, S. aureus EMRSA-15” value is greater than 512 µg/mL. The “Minimum Inhibitory Concentration, Ent. faecalis” value in the data set on Ent. faecalis (JH2–2) is greater than 512 µg/mL. The “Minimum Inhibitory Concentration, B. cereus” value in the data set on B. cereus is greater than 512 µg/mL. For the same compound, the “Minimum Inhibitory Concentration, E. coli K12” value with E. coli K12 is greater than 512 µg/mL. In addition, the “Minimum Inhibitory Concentration, Sal. Tyhimurium” value with Sal. Tyhimurium (SL1344) was greater than 512 µg/mL. The “Minimum Inhibitory Concentration, P. aeruginosa PAO1” value in the data set on P. aeruginosa PAO1 is greater than 512 µg/mL. In addition, the “Minimum Inhibitory Concentration, P. aeruginosa H174” value in the data set on P. aeruginosa H174 was greater than 512 µg/mL. Besides, the “Minimum Inhibitory Concentration, A. baumannii DSMZ 30007” value in the data set with A. baumannii DSMZ 30007 is greater than 512 µg/mL. Further, the “Minimum Inhibitory Concentration, A. baumannii S27379 Sen” value in the data set with A. baumannii S27379 Sen was greater than 512 µg/mL. The “Minimum Inhibitory Concentration, A. baumannii S15785 OXA-23/0XA-50” value in [2] is greater than 512 µg/mL. Further, in the data set on A. baumannii IMI/MER-R, the “Minimum Inhibitory Concentration, A. baumannii IMI/MER-R” value is greater than 512 µg/mL.
